Experimental data reported in publication PMC11642448, “Pheromone-Binding Protein 1 Performs a Dual Function for Intra- and Intersexual Signaling in a Moth” (International Journal of Molecular Sciences, 2024).

Experiments:
AaenPBP1 [1] = target: T1, AaenPBP1 (Agriphila aeneociliella, UniProt Z9SOT8HEE8); assay: competitive fluorescence binding (1-NPN displacement)
T1 construct: mature protein without signal peptide (1-23 of 166 aa ORF); pET-15b with SUMO tag, His-tag Ni-NTA purification, E. coli BL21(DE3)
T1 sequence (Z9SOT8HEE8 24-166): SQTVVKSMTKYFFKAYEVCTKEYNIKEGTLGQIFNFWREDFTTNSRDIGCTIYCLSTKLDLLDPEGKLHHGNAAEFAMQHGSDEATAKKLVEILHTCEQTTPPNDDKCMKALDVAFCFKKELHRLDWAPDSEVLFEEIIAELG

AaenPBP1 [2] = target: T1, AaenPBP1; assay: fluorescence titration, Scatchard analysis; format: binding

Ki (AaenPBP1 [1]) [µM]	Compound	Kd (AaenPBP1 [2]) [µM]
1.72	CCCCCC/C=C\CCCCCCCCOC(C)=O [(Z)-9-Hexadecenyl acetate]	–
7.04	CCCCCCCCC=O [1-Nonanal]	–
–	c1ccc(Nc2cccc3ccccc23)cc1 [1-NPN]	4.6
